Assay results from article PMC1976805, “Preclinical pharmacokinetics of benznidazole” (British Journal of Cancer, 1984).
Like-named read-outs stand apart in the source and are kept apart here.

Key:
[1] = test system: plasma proteins; test: In vivo plasma protein binding in dogs (plasma ultrafiltrate); settings: dog; for fraction unbound: plasma
Text: (§1) Br. J. Cancer (1984), 50, 291-303 Preclinical pharmacokinetics of benznidazole P. Workman', R.A.S. White2, M.I. Walton', L.N. Owen2* & P.R. Twentyman' 1MRC Clinical Oncology and Radiotherapeutics Unit, MRC Centre, Hills Road, Cambridge CB2 2QH, and 2Department of Clinical Veterinary Medicine, University of Cambridge, Madingley Road, Cambridge CB3 OES, UK. […] We have investigated the detailed pharmacokinetics of benznidazole in mice, dogs and sheep to provide a data base for the estimation of doses required for chemosensitization in man. Pharmacokinetic behaviour was linear except at high doses in mice. Absorption was fairly rapid and bioavailability was complete following both i.p. administration in mice and oral administration in dogs. Elimination t4 values were longer than for MISO, being 90 min in mice, 4-5 h in sheep and 9-11 h in dogs. At doses giving linear kinetics, peak whole plasma concentrations per administered mgkg-1 were 0.75 jigml-1 for the i.p. route in mice and 1.8jugmlP' for the oral route in dogs. Though between 39 and 59% of plasma benznidazole was bound to protein, tissue penetration was generally good. Tissue/whole plasma ratios ranged from 59-99% for transplantable mouse tumours and from 14-70% for spontaneous dog neoplasms. Nervous tissue penetration was similar to that in tumours: brain/whole plasma ratios averaged between 61 and 76% in mice and 42% in dogs, while peripheral nerve/whole plasma ratios in dogs averaged 74%. Mean liver/whole plasma ratios were 42% and 71% in BALB/c and C3H/He mouse strains respectively. Only -5% of the administered dose was excreted unchanged in the urine, indicating the likelihood of extensive metabolism. […] Enhancement of CCNU response is likely to require circulating benznidazole concentrations of 10-30 pgml-1 and we predict that these will be obtained with oral doses of 6-20 mgkg- 1 in man. […] This enhancement, or chemosensitization, is usually greater than that seen in dose-limiting normal tissues, resulting in an improved therapeutic index. Because of the relatively high doses of MISO usually required for chemosensitization in mice (see above refs), and also because of its neurotoxicity in man (Dische et al., 1977), we have been interested in finding an improved chemosensitizer. […] The lipophilic ana- logue benznidazole (N-benzyl-(2-nitroimidazolyl) acetamide, Ro 07-1051; Radanil; Roche), the structure of which is shown in Figure 1, was selected for detailed study because of its ability to *Present address: Animal Health Trust, Small Animals Centre, Lanwades Park, Kennett, Newmarket, Suffolk CB8 7PN, UK. Correspondence: P. Workman. […] These findings have been confirmed independently by Siemann et al. (1983). Although benznidazole is used quite widely in South America to treat patients with the trypanosomal infection Chagas' disease or with mucotaneous Leishmaniasis (Barclay et al., 1978; Cerisola et al., 1978; Coura et al., 1978; Fava et al., 1978), apart from our preliminary studies (White et al., 1982) the only published data on its pharmaco- kinetics are for human plasma concentrations measured by polarography (Raaflub & Ziegler, 1979; Raaflub, 1980). Here we describe the pharmacokinetics of benznidazole in the mouse, sheep and dog, as determined by high-performance liquid chromatography (HPLC). […] The Macmillan Press Ltd., 1984 292 P. WORKMAN et al. particularly on plasma and tumour concentrations, have been used as a basis for the estimation of the benznidazole doses required in a Phase I trial of benznidazole plus CCNU, at present ongoing in our Unit. Materials and methods Animals and tumours Adult inbred male BALB/c mice were obtained from OLAC (Southern) Ltd. (Bicester, UK) and adult inbred C3H/He mice of both sexes from OLAC and our own breeding colony. Mice were housed in plastic cages on sawdust bedding made from soft white woods, and allowed laboratory chow and water ad lib. They were used at 20-35 g body wt.

[2] = test system: plasma proteins; test: Binding to plasma proteins in vitro, mouse plasma (ultrafiltrate); format: in vitro ADME
Text: (§2) Br. J. Cancer (1984), 50, 291-303 Preclinical pharmacokinetics of benznidazole P. Workman', R.A.S. White2, M.I. Walton', L.N. Owen2* & P.R. Twentyman' 1MRC Clinical Oncology and Radiotherapeutics Unit, MRC Centre, Hills Road, Cambridge CB2 2QH, and 2Department of Clinical Veterinary Medicine, University of Cambridge, Madingley Road, Cambridge CB3 OES, UK. […] We have investigated the detailed pharmacokinetics of benznidazole in mice, dogs and sheep to provide a data base for the estimation of doses required for chemosensitization in man. Pharmacokinetic behaviour was linear except at high doses in mice. Absorption was fairly rapid and bioavailability was complete following both i.p. administration in mice and oral administration in dogs. Elimination t4 values were longer than for MISO, being 90 min in mice, 4-5 h in sheep and 9-11 h in dogs. At doses giving linear kinetics, peak whole plasma concentrations per administered mgkg-1 were 0.75 jigml-1 for the i.p. route in mice and 1.8jugmlP' for the oral route in dogs. Though between 39 and 59% of plasma benznidazole was bound to protein, tissue penetration was generally good. Tissue/whole plasma ratios ranged from 59-99% for transplantable mouse tumours and from 14-70% for spontaneous dog neoplasms. Nervous tissue penetration was similar to that in tumours: brain/whole plasma ratios averaged between 61 and 76% in mice and 42% in dogs, while peripheral nerve/whole plasma ratios in dogs averaged 74%. […] Although benznidazole is used quite widely in South America to treat patients with the trypanosomal infection Chagas' disease or with mucotaneous Leishmaniasis (Barclay et al., 1978; Cerisola et al., 1978; Coura et al., 1978; Fava et al., 1978), apart from our preliminary studies (White et al., 1982) the only published data on its pharmaco- kinetics are for human plasma concentrations measured by polarography (Raaflub & Ziegler, 1979; Raaflub, 1980). Here we describe the pharmacokinetics of benznidazole in the mouse, sheep and dog, as determined by high-performance liquid chromatography (HPLC). […]

[3] = Penetration into EMT6 and KHT mouse tumours; format: in vivo; settings: for steady-state concentration in tumour: multiple dose schedule
Text: as §1

[4] = parameters: method as in earlier work; settings: patients, 5 mg kg-1 day-1 for 30 days, side effects incl. peripheral neuropathy observed in these studies, ref Barclay et al., 1978, Cerisola et al., Coura et al., Fava et al.; cited from earlier work
[5] = 24 h urinary recovery of unchanged drug in mice; format: in vivo, mouse; settings: for dose excreted: male, BALB/c, mouse, urine, ip, 650 mg kg-1, BALB/c mice, 650 mg kg-1 i.p.
Text: as §2

[6] = EMT6 flank tumour, BALB/c, 45 min after 650 mg kg-1 i.p.

O=C(Cn1ccnc1[N+](=O)[O-])NCc1ccccc1 [benznidazole, N-benzyl-(2-nitroimidazolyl) acetamide]
fraction unbound ([1]; beagle, po, 50 mg kg-1, dog E, 50 mg kg-1 oral, full time course, read-out: protein binding (mean+s.e., n=8) (converted)): 0.45 | fraction unbound ([1]; beagle, po, 50 mg kg-1, dog F, 50 mg kg-1 oral, full time course, read-out: protein binding (mean+s.e., n=8) (converted)): 0.48 | fraction unbound ([1]; collie crossbred, beagle, iv, dogs, apart from the two i.v. time courses, read-out: in vivo protein binding, range): 0.41 to 0.48 | fraction unbound ([1]; collie crossbred, iv, 5 mg kg-1, dog C, 5 mg kg-1 i.v., full time course, read-out: protein binding (mean+s.e., n=8) (converted)): 0.28 | fraction unbound ([1]; collie crossbred, iv, 5 mg kg-1, dog D, 5 mg kg-1 i.v., full time course, read-out: protein binding (mean+s.e., n=8) (converted)): 0.26 | fraction unbound ([1]; collie crossbred, po, 25 mg kg-1, dog A, 25 mg kg-1 oral, mean of 4 and 5 h values, read-out: protein binding (converted)): 0.47 | fraction unbound ([1]; collie crossbred, po, 25 mg kg-1, dog B, 25 mg kg-1 oral, mean of 4 and 5 h values, read-out: protein binding (converted)): 0.41 | fraction unbound ([1]; collie crossbred, po, 25 mg kg-1, dog C, 25 mg kg-1 oral, mean of 4 and 5 h values, read-out: protein binding (converted)): 0.45 | fraction unbound ([1]; collie crossbred, po, 25 mg kg-1, dog D, 25 mg kg-1 oral, mean of 4 and 5 h values, read-out: protein binding (converted)): 0.47 | binding to plasma proteins ([1]; discussion summary): 59% | extent of binding to plasma proteins in vitro ([2]; BALB/c mice): 38% | extent of binding to plasma proteins in vitro ([2]; C3H/He mice): 39% | binding to plasma proteins ([2]; mouse, discussion summary): 39% | concentration in tumour homogenate (Figure 2 chromatogram) [3, 6]: 13500 ng/mL | tumour concentration (Figure 2 chromatogram) [3, 6]: 54 µg/g | tumour/whole plasma ratio (s.e., n=5) ([3]; EMT6 flank, experiment b, 650 mg kg-1 i.p., 45 min): 58+8% | tumour/whole plasma ratio (s.e., n=5) ([3]; EMT6 flank, experiment b, 650 mg kg-1 i.p., 75 min): 70 + 5% | tumour/whole plasma ratio (s.e., n=5) ([3]; EMT6 flank, experiment b, 650 mg kg-1 i.p., 105 min): 97 + 4% | tumour/whole plasma ratio (s.e., n=5) ([3]; EMT6 flank, experiment b, 650 mg kg-1 i.p., 135 min): 88 + 9% | tumour/whole plasma ratio (% ± s.e.) ([3]; EMT6 i.d. flank, BALB/c, Exp 2 (b): 650 mg kg-1 i.p., 45-135 min, n=20): 79 + 5% | peak tumour level (s.e., n=4) ([3]; EMT6 i.d. flank, first experiment, 650 mg kg-1 i.p. in arachis oil): 55+11 µg g-1 | tumour/whole plasma ratio (% ± s.e.) ([3]; EMT6 i.m. leg, BALB/c, Exp 1 (c): 650 mg kg-1 i.p., 45-135 min, n=20): 75 + 5% | tumour/whole plasma ratio (% ± s.e.) ([3]; EMT6 i.m. leg, BALB/c, Exp 2 (d): 650 mg kg-1 i.p., 45-135 min, n=20): 74+6% | peak tumour level (s.e., n=5) ([3]; EMT6 i.m. leg, first experiment, 650 mg kg-1 i.p.): 130+7 µg g-1 | peak tumour level (s.e., n=5) ([3]; EMT6 i.m. leg, second experiment, 650 mg kg-1 i.p.): 84+14 µg g-1 | tumour/whole plasma ratio (% ± s.e.) ([3]; KHT i.m. leg, C3H/He, Exp 1 (e): 60 mg kg-1 i.p. priming + 15 hourly doses of 15 mg kg-1, 1-16 h, n=25): 99+3% | tumour/whole plasma ratio (% ± s.e.) ([3]; KHT i.m. leg, C3H/He, Exp 2 (f): dosing as e omitting the dose at 1 h, 2-16 h, n=13): 90+ 3% | tumour/whole plasma ratio (s.e., n=5) ([3]; KHT tumour, 1 h after single i.p. dose of 78 mg kg-1): 88+5% | tumour/whole plasma ratio (s.e., n=5) ([3]; KHT tumour, 1 h after single i.p. dose of 260 mg kg-1): 88+2% | steady-state concentration in tumour ([3]; KHT tumour, first experiment): 26 µg/g | steady-state concentration in tumour ([3]; KHT tumour, second experiment): 32 µg/g | range of mean plasma concentrations ([3]; Table II experiment a): 49 to 99 µg/mL | range of mean plasma concentrations ([3]; Table II experiment b): 77 to 121 µg/mL | range of mean plasma concentrations ([3]; Table II experiment c): 100 to 130 µg/mL | range of mean plasma concentrations ([3]; Table II experiment d): 74 to 133 µg/mL | range of mean plasma concentrations ([3]; Table II experiment e (multiple dose)): 25 to 47 µg/mL | range of mean plasma concentrations ([3]; Table II experiment f (multiple dose)): 12 to 29 µg/mL | Kp ([3]; male, BALB/c, mouse, EMT6 flank tumour / whole plasma, EMT6 flank tumours, read-out: overall tissue/whole plasma ratio): 0.69 | Kp ([3]; male, mouse, tumour (EMT6, intradermal, intraperitoneal), EMT6 i.d. flank, BALB/c, Exp 1 (a): 650 mg kg-1 i.p. single dose (arachis oil), 45-135 min, n=16, read-out: tumour/whole plasma ratio (% ± s.e.)): 0.59 | peak tumour concentration that would be produced ([3]; mice, 13 mg kg-1 i.p.): ~9 µg/g | tumour concentration ([3]; mice, 78 mg kg-1 i.p., discussion summary): 26 µg/g | Kp ([3]; tumour (KHT and EMT6), transplantable mouse tumours (KHT and EMT6), read-out: tissue/whole plasma ratios, range): 0.59 to 0.99 | Kp ([3]; tumour / whole plasma, transplantable mouse tumours, read-out: steady-state tumour/whole plasma ratio (about)): ~0.9 | tolerability [4]: well tolerated | dose excreted ([5]; experiment 1): 4.8% | dose excreted ([5]; experiment 2): 5.2% | administered dose excreted unchanged in the urine ([5]; summary value): approximately 5%
